Results published in patent US9018258B2, “Substituted 1-benzylcycloalkylcarboxylic acids and the use thereof” (Bayer Intellectual Property GmbH, priority 2010, dated 2015).

Key:
Haem-containing sGC = target: T1, Haem-containing sGC (Rattus norvegicus, UniProt P20595); test: Stimulation of recombinant soluble guanylate cyclase (sGC) in vitro, haem-containing enzyme; type: biochemical
T1 construct: made in house; host or cells: Sf9 insect cells (baculovirus)
Text: Hoenicka, E. M. Becker, H. Apeler, T. Sirichoke, H. Schroeder, R. Gerzer and J.-P. Stasch, “Purified soluble guanylyl cyclase expressed in a baculovirus/Sf9 system: Stimulation by YC-1, nitric oxide, and carbon oxide”, J. Mol. Med. 77 (1999), 14-23. The haem-free guanylate cyclase is obtained by adding Tween 20 to the sample buffer (0.5% in the final concentration).
(§1) The activation of sGC by a test substance is reported as x-fold stimulation of the basal activity.

Haem-free sGC = target: T2, Haem-free sGC (Rattus norvegicus, UniProt P20595); test: Stimulation of recombinant soluble guanylate cyclase (sGC) in vitro, haem-free enzyme; type: biochemical
T2 construct: made in house; host or cells: Sf9 insect cells (baculovirus)
T2 sequence (P19686 whole entry partner): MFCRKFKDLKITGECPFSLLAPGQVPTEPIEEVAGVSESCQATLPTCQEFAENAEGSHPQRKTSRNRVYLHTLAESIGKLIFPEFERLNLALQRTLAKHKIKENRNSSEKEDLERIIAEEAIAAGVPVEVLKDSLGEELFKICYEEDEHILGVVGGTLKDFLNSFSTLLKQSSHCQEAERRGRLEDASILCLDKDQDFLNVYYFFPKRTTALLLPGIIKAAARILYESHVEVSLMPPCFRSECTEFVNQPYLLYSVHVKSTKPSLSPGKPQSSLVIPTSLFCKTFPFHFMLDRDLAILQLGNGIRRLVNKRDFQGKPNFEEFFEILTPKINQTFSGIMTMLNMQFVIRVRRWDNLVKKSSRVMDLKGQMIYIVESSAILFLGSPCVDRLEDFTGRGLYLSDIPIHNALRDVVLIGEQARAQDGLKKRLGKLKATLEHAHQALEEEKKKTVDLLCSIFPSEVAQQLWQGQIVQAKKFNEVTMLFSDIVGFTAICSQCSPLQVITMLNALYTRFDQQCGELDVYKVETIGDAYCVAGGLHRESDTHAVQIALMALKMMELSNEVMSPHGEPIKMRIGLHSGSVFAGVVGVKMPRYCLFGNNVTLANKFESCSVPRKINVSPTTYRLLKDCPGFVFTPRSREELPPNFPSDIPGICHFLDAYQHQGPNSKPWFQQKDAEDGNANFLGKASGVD
T2 sequence (P20595 whole entry): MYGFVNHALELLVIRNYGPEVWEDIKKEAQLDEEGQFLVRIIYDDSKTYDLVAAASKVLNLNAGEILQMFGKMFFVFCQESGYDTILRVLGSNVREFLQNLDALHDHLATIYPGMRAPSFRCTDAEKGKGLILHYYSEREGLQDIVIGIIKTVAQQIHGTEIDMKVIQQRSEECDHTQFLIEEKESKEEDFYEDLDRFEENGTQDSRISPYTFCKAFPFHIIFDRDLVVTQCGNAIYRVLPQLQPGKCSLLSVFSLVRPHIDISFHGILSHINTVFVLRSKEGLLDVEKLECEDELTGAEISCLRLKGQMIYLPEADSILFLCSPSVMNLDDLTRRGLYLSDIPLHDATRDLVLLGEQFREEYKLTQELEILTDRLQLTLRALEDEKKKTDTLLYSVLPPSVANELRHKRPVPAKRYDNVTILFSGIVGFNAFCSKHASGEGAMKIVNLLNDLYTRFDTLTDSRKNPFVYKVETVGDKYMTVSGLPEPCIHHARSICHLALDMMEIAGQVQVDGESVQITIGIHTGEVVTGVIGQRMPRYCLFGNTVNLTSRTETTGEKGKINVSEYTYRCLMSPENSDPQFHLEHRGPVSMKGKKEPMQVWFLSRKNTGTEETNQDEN
Procedure: Investigations on the stimulation of recombinant soluble guanylate cyclase (sGC) by the compounds according to the invention with and without sodium nitroprusside, and with and without the haem-dependent sGC inhibitor 1H-1,2,4-oxadiazolo[4,3a]quinoxalin-1-one (ODQ), are carried out by the method described in detail in the following reference: M. Hoenicka, E. M. Becker, H. Apeler, T. Sirichoke, H. Schroeder, R. Gerzer and J.-P. Stasch, “Purified soluble guanylyl cyclase expressed in a baculovirus/Sf9 system: Stimulation by YC-1, nitric oxide, and carbon oxide”, J. Mol. Med. 77 (1999), 14-23. The haem-free guanylate cyclase is obtained by adding Tween 20 to the sample buffer (0.5% in the final concentration).
as §1

T1 sequence (P19686 whole entry partner): as the sequence (P19686 whole entry partner) above
T1 sequence (P20595 whole entry): as the sequence (P20595 whole entry) above

Stimulation (x-fold) of recombinant sGC, +0.01 μM DEA/NO (Haem-containing sGC; test substance 0.01 μM) | Stimulation (x-fold) of recombinant sGC, +0.01 μM DEA/NO (Haem-containing sGC; test substance 0.1 μM) | Stimulation (x-fold) of recombinant sGC, +0.01 μM DEA/NO (Haem-containing sGC; test substance 1.0 μM) | Stimulation (x-fold) of recombinant sGC, +0.01 μM DEA/NO (Haem-containing sGC; test substance 10 μM) | Stimulation (x-fold) of recombinant sGC, +10 μM ODQ (Haem-containing sGC; test substance 0.01 μM) | Stimulation (x-fold) of recombinant sGC, +10 μM ODQ (Haem-containing sGC; test substance 0.1 μM) | Stimulation (x-fold) of recombinant sGC, +10 μM ODQ (Haem-containing sGC; test substance 1.0 μM) | Stimulation (x-fold) of recombinant sGC, +10 μM ODQ (Haem-containing sGC; test substance 10 μM) | Effect of combination with DEA/NO (NO donor) on sGC stimulation (Haem-containing sGC) | Stimulation (x-fold) of recombinant sGC, Basal (Haem-containing sGC; test substance 0.01 μM) | Stimulation (x-fold) of recombinant sGC, Basal (Haem-containing sGC; test substance 0.1 μM) | Stimulation (x-fold) of recombinant sGC, Basal (Haem-containing sGC; test substance 1.0 μM) | Stimulation (x-fold) of recombinant sGC, Basal (Haem-containing sGC; test substance 10 μM) | Stimulation (x-fold) of recombinant sGC, Basal (Haem-free sGC; test substance 0.01 μM) | Stimulation (x-fold) of recombinant sGC, Basal (Haem-free sGC; test substance 0.1 μM) | Stimulation (x-fold) of recombinant sGC, Basal (Haem-free sGC; test substance 1.0 μM) | Stimulation (x-fold) of recombinant sGC, Basal (Haem-free sGC; test substance 10 μM) | also measured | SMILES
4.0 ± 0.6 x-fold | 4.4 ± 0.8 x-fold | 5.0 ± 1.7 x-fold | 5.3 ± 1.8 x-fold | 4.3 ± 0.4 x-fold | 5.7 ± 0.3 x-fold | 9.2 ± 0.9 x-fold | 10.3 ± 1.3 x-fold | no synergistic effect | 1.0 ± 0.0 x-fold | 1.5 ± 0.2 x-fold | 1.8 ± 0.3 x-fold | 2.6 ± 0.4 x-fold | 2.0 ± 0.4 x-fold | 5.2 ± 0.8 x-fold | 14.9 ± 2.2 x-fold | 19.4 ± 2.8 x-fold | – | [2H]C([2H])([2H])OC(c1ccc(Cl)c(NC(=O)[C@H](c2ccc(Cl)cc2)[C@@H](C)C(F)(F)F)c1)C1(C(=O)O)CC1 (single isomer, unassigned; (+)) [Example 99]
7.5 ± 1.8 x-fold | 7.6 ± 1.8 x-fold | 9.0 ± 2.0 x-fold | 13.3 ± 2.2 x-fold | 9.2 ± 1.4 x-fold | 9.6 ± 1.5 x-fold | 12.7 ± 1.5 x-fold | 21.5 ± 2.2 x-fold | no synergistic effect | 1.4 ± 0.1 x-fold | 1.2 ± 0.1 x-fold | 2.6 ± 0.4 x-fold | 6.4 ± 0.6 x-fold | 2.6 ± 0.8 x-fold | 7.1 ± 2.4 x-fold | 27.2 ± 7.4 x-fold | 41.2 ± 9.8 x-fold | Stimulation (x-fold) of recombinant sGC, +0.01 μM DEA/NO (Haem-containing sGC; test substance 100 μM): 14.6 ± 2.2 x-fold; Stimulation (x-fold) of recombinant sGC, +10 μM ODQ (Haem-containing sGC; test substance 100 μM): 22.6 ± 2.6 x-fold; Stimulation (x-fold) of recombinant sGC, Basal (Haem-containing sGC; test substance 100 μM): 9.5 ± 0.9 x-fold; Stimulation (x-fold) of recombinant sGC, Basal (Haem-free sGC; test substance 100 μM): 39.0 ± 9.1 x-fold | C[C@H]([C@H](C(=O)Nc1cc(CC2(C(=O)O)CC2)ccc1Cl)c1ccc(Cl)cc1)C(F)(F)F [Example 50, (+)-1-(4-Chloro-3-{[(2S,3R)-2-(4-chlorophenyl)-4,4,4-trifluoro-3-methylbutanoyl]amino}benzyl)-cyclopropanecarboxylic acid]
